Assay results reported in patent EP0100734A1, “Process for the separation or purification of a sleep promoting factor from a biological source by immunological reaction of the antigen-antibody kind” (ANVAR Agence Nationale de Valorisation de la Recherche, priority 1982, dated 1984).

Test system: anticorps monoclonaux anti-MDP
Assay: Competitive ELISA: inhibition of binding of MDP-lysine-peroxidase conjugate to captured monoclonal anti-MDP antibody
Parameters: species or system souris
Description: On a recours à la technique antérieurement. décrite dans l'article de BAHR et Coll. déjà mentionné, sous réserve de quelques modifications de détail. Les éléments essentiels de la méthodologie utilisée sont rappelés ci-après.
Les puits de plaques micro-ELISA (commercialisées par la société DYNATECH) sont tapissés avec des fractions Ig d'anticorps de chèvre anti-souris IgM, IgA ou IgG, par maintien en contact avec leurs parois d'une solution contenant 5 ug/ml de la fraction Ig pendant 3 heures à 4°C. Après lavage de la plaque avec une solution de PBS contenant 0,05 % de l'agent de dispersion commercialisé sous la dénomination TWEEN 20, on ajoute des dilutions des surnageants d'hybridomes producteurs d'anticorps anti-MDP aux différents puits et on incube pendant 2 heures à la température ambiante. Les fractions Ig facilitent la retenue des anticorps anti-MDP. Les plaques sont ensuite lavées et une solution de MDP-lysine couplé à de la péroxydase de raifort diluée au 1/1000 est ajoutée aux puits. Les plaques sont ensuite laissées au repos pendant la nuit à 4°C. Après lavage, on détermine les proportions de MDP-lysine-péroxydase fixées dans les puits, en mettant en oeuvre l'ortho-phénylène-diamine et de l'eau oxygénée en tant que substrat de la péroxydase. […]

## CC(=O)N[C@H]1C(O)O[C@H](CO)[C@@H](O)[C@@H]1O[C@H](C)C(=O)N[C@@H](C)C(=O)N[C@H](CCC(=O)O)C(N)=O (stereo partly drawn) [MDP, M-acétyl-muramyl-L-alanyl-D-isoglutamine]
100 µl of MDP solution containing 100 ng, added together with MDP-peroxidase conjugate (1/1000), antibody diluted 1/100 = 100 % activity
  inhibitions exprimées par des activités: 31%

## CC(=O)N[C@H]1C(O)O[C@H](CO)[C@@H](O)[C@@H]1O[C@H](C)C(=O)N[C@H](C)C(=O)N[C@H](CCC(=O)O)C(N)=O (stereo partly drawn) [MDP-DD, N-acétyl- muramyl- D-alanyl-D-isoglutamine]
Added under the same conditions together with the conjugate, amount not stated
  inhibition: aucune inhibition
